# Test results reported in ChEMBL document CHEMBL5247624, “N-sulfonylpiperidinedispiro-1,2,4,5-tetraoxanes exhibit potent in vitro antiplasmodial activity and in vivo efficacy in mice infected with P. berghei ANKA” (Eur J Med Chem, 2022).
# Activity calls are given as the source filed them. No cut-off for these calls is given here.
# Tested on: Plasmodium falciparum
# Experiment: Antiplasmodial activity against erythrocytic stage of chloroquine-sensitive Plasmodium falciparum 3D7 infected in human RBC assessed as increase in intracellular ROS level at 10 uM incubated for 3 hrs by H2DCFDA probe based flow cytometry
# Type: functional, organism-based
# Conditions: Erythrocyte
row,SMILES,Activity
1,CCS(=O)(=O)N1CCC2(CC1)OOC1(CCCCC1)OO2,Active
2,CCCS(=O)(=O)N1CCC2(CC1)OOC1(CCCCCC1)OO2,Active
3,O=S(=O)(CCCCl)N1CCC2(CC1)OOC1(CCCC1)OO2,Active
4,CCCS(=O)(=O)N1CCC2(CC1)OOC1(CCCCC1)OO2,Active
5,CCCC1(C)OOC2(CCN(S(=O)(=O)CCC)CC2)OO1,Active
6,CS(=O)(=O)N1CCC2(CC1)OOC1(CCCCCC1)OO2,Active
7,O=S(=O)(c1ccc(Br)cc1F)N1CCC2(CC1)OOC1(CCCCCC1)OO2,Active

# Tested on: Plasmodium falciparum
# Experiment: Antiplasmodial activity against erythrocytic stage of chloroquine-sensitive Plasmodium falciparum 3D7 assessed as inhibition of parasite growth incubated for 3 days by HRP2-ELISA assay
# Type: functional, organism-based
# Conditions: 3D7, 72 h
row,SMILES,IC50 [nM]
1,CS(=O)(=O)N1CCC2(CC1)OOC1(CCN(S(C)(=O)=O)CC1)OO2,39.6
2,COc1ccc(S(=O)(=O)N2CCC3(CC2)OOC2(CCCCC2)OO3)cc1,32.2
3,CCCS(=O)(=O)N1CCC2(CC1)OOC(C)(C)OO2,101
4,CCS(=O)(=O)N1CCC2(CC1)OOC1(CCCCC1)OO2,10.5
5,O=S(=O)(c1ccc(Br)cc1F)N1CCC2(CC1)OOC1(CCCC1)OO2,44.2
6,CCCS(=O)(=O)N1CCC2(CC1)OOC1(CCCCCC1)OO2,4.7
7,O=S(=O)(c1ccc(F)cc1)N1CCC2(CC1)OOC1(CCCC1)OO2,67
8,O=S(=O)(CCCCl)N1CCC2(CC1)OOC1(CCCCCC1)OO2,13
9,O=S(=O)(c1ccc(F)cc1)N1CCC2(CC1)OOC1(CCCCC1)OO2,77.4
10,C1CCCC2(CC1)OOC1(CCCCCC1)OO2,39.4
11,O=S(=O)(CCCCl)N1CCC2(CC1)OOC1(CCCC1)OO2,8.43
12,CCS(=O)(=O)N1CCC2(CC1)OOC1(CCCC1)OO2,11.8
13,O=S(=O)(Cc1ccccc1)N1CCC2(CC1)OOC1(CCCCCC1)OO2,64.7
14,CCCS(=O)(=O)N1CCC2(CC1)OOC(C)(C1CC1)OO2,60.2
15,COc1ccc(S(=O)(=O)N2CCC3(CC2)OOC2(CCCC2)OO3)cc1,25.3
16,CCN(CC)CCCC(C)Nc1ccnc2cc(Cl)ccc12 (stereo not given) [CHLOROQUINE],4.36
17,CCCCS(=O)(=O)N1CCC2(CC1)OOC1(CCCC1)OO2,41.9
18,O=S(=O)(c1ccc(Br)cc1F)N1CCC2(CC1)OOC1(CCCCC1)OO2,322
19,CCCS(=O)(=O)N1CCC2(CC1)OOC1(CCCCC1)OO2,12.9
20,CCCC1(C)OOC2(CCN(S(=O)(=O)CCC)CC2)OO1,10.9
21,CS(=O)(=O)N1CCC2(CC1)OOC1(CCCCCC1)OO2,9.67
22,O=S(=O)(c1ccc(Br)cc1F)N1CCC2(CC1)OOC1(CCCCCC1)OO2,10.4

# Tested on: Plasmodium berghei
# Experiment: Antiplasmodial activity against Plasmodium berghei ANKA infected in Swiss albino mouse assessed as reduction of parasitaemia at 60 mg/kg/day,ip qd administrated for 5 subsequent days by Giemsa staining assay relative to control
# Type: functional
# Set-up: scale not given: the % may be the effect or the level left
# Conditions: not given
row,SMILES,Activity [%]
1,CCS(=O)(=O)N1CCC2(CC1)OOC1(CCCCC1)OO2,100

# Tested on: Huh-7
# Experiment: Cytotoxicity against human Huh-7 cells assessed as reduction in cell viability incubated for 72 hrs by MTT assay
# Type: functional
# Conditions: not given
row,SMILES,CC50 [µg/mL]
1,CS(=O)(=O)N1CCC2(CC1)OOC1(CCN(S(C)(=O)=O)CC1)OO2,> 100
2,COc1ccc(S(=O)(=O)N2CCC3(CC2)OOC2(CCCCC2)OO3)cc1,> 100
3,CCCS(=O)(=O)N1CCC2(CC1)OOC(C)(C)OO2,> 100
4,CCS(=O)(=O)N1CCC2(CC1)OOC1(CCCCC1)OO2,> 100
5,O=S(=O)(c1ccc(Br)cc1F)N1CCC2(CC1)OOC1(CCCC1)OO2,> 100
6,CCCS(=O)(=O)N1CCC2(CC1)OOC1(CCCCCC1)OO2,> 100
7,O=S(=O)(c1ccc(F)cc1)N1CCC2(CC1)OOC1(CCCC1)OO2,> 100
8,O=S(=O)(CCCCl)N1CCC2(CC1)OOC1(CCCCCC1)OO2,> 100
9,O=S(=O)(c1ccc(F)cc1)N1CCC2(CC1)OOC1(CCCCC1)OO2,> 100
10,C1CCCC2(CC1)OOC1(CCCCCC1)OO2,> 100
11,O=S(=O)(CCCCl)N1CCC2(CC1)OOC1(CCCC1)OO2,> 100
12,CCS(=O)(=O)N1CCC2(CC1)OOC1(CCCC1)OO2,> 100
13,O=S(=O)(Cc1ccccc1)N1CCC2(CC1)OOC1(CCCCCC1)OO2,> 100
14,CCCS(=O)(=O)N1CCC2(CC1)OOC(C)(C1CC1)OO2,> 100
15,COc1ccc(S(=O)(=O)N2CCC3(CC2)OOC2(CCCC2)OO3)cc1,> 100
16,CCN(CC)CCCC(C)Nc1ccnc2cc(Cl)ccc12 (stereo not given) [CHLOROQUINE],> 100
17,CCCCS(=O)(=O)N1CCC2(CC1)OOC1(CCCC1)OO2,> 100
18,O=S(=O)(c1ccc(Br)cc1F)N1CCC2(CC1)OOC1(CCCCC1)OO2,> 100
19,CCCS(=O)(=O)N1CCC2(CC1)OOC1(CCCCC1)OO2,> 100
20,CCCC1(C)OOC2(CCN(S(=O)(=O)CCC)CC2)OO1,> 100
21,CS(=O)(=O)N1CCC2(CC1)OOC1(CCCCCC1)OO2,> 100
22,O=S(=O)(c1ccc(Br)cc1F)N1CCC2(CC1)OOC1(CCCCCC1)OO2,> 100

# Tested on: Plasmodium falciparum
# Experiment: Antiplasmodial activity against erythrocytic stage of chloroquine-sensitive Plasmodium falciparum 3D7 infected in human RBC assessed as increase in intracellular ROS level by measuring green fluorescence at 10 uM incubated for 3 hrs by H2DCFDA probe based fluorescence microscopic analysis
# Type: functional, organism-based
# Conditions: Erythrocyte
row,SMILES,Activity
1,CCS(=O)(=O)N1CCC2(CC1)OOC1(CCCCC1)OO2,Active
2,CCCS(=O)(=O)N1CCC2(CC1)OOC1(CCCCCC1)OO2,Active
3,O=S(=O)(CCCCl)N1CCC2(CC1)OOC1(CCCC1)OO2,Active
4,CCCS(=O)(=O)N1CCC2(CC1)OOC1(CCCCC1)OO2,Active
5,CCCC1(C)OOC2(CCN(S(=O)(=O)CCC)CC2)OO1,Active
6,CS(=O)(=O)N1CCC2(CC1)OOC1(CCCCCC1)OO2,Active
7,O=S(=O)(c1ccc(Br)cc1F)N1CCC2(CC1)OOC1(CCCCCC1)OO2,Active

# Tested on: Plasmodium berghei
# Experiment: Antiplasmodial activity against Plasmodium berghei ANKA infected in Swiss albino mouse assessed as reduction of parasitaemia at 60 mg/kg/day,ip qd measured at 24 hrs post administration by Giemsa staining assay relative to control
# Type: functional
# Set-up: scale not given: the % may be the effect or the level left
# Conditions: not given
row,SMILES,Activity [%]
1,O=S(=O)(CCCCl)N1CCC2(CC1)OOC1(CCCC1)OO2,<0.1
2,CCN(CC)CCCC(C)Nc1ccnc2cc(Cl)ccc12 (stereo not given) [CHLOROQUINE],100

# Tested on: Plasmodium berghei
# Experiment: Antiplasmodial activity against Plasmodium berghei ANKA infected in Swiss albino mouse assessed as parasite recrudescence by measuring parasitemia at 60 mg/kg/day,ip qd administrated for 4 subsequent days by Giemsa staining assay
# Type: functional
# Conditions: not given
row,SMILES,Activity
1,CCS(=O)(=O)N1CCC2(CC1)OOC1(CCCCC1)OO2,>0.1%
2,CCCS(=O)(=O)N1CCC2(CC1)OOC1(CCCCCC1)OO2,>0.1%
3,O=S(=O)(CCCCl)N1CCC2(CC1)OOC1(CCCC1)OO2,inactive
4,CCCS(=O)(=O)N1CCC2(CC1)OOC1(CCCCC1)OO2,>0.1%
5,CCCC1(C)OOC2(CCN(S(=O)(=O)CCC)CC2)OO1,>0.1%
6,CS(=O)(=O)N1CCC2(CC1)OOC1(CCCCCC1)OO2,>0.1%
7,O=S(=O)(c1ccc(Br)cc1F)N1CCC2(CC1)OOC1(CCCCCC1)OO2,>0.1%

# Tested on: Plasmodium berghei
# Experiment: Antiplasmodial activity against Plasmodium berghei ANKA infected in Swiss albino mouse assessed as increase in animal survival rate at 60 mg/kg/day,ip qd administrated for 5 subsequent days
# Type: functional, organism-based
# Conditions: not given
row,SMILES,Activity
1,O=S(=O)(CCCCl)N1CCC2(CC1)OOC1(CCCC1)OO2,Active

# Tested on: Plasmodium berghei
# Experiment: Antiplasmodial activity against Plasmodium berghei ANKA infected in Swiss albino mouse assessed as reduction of parasitaemia at 60 mg/kg/day,ip qd measured after 72 hrs post administration by Giemsa staining assay relative to control
# Type: functional
# Set-up: scale not given: the % may be the effect or the level left
# Conditions: not given
row,SMILES,Activity [%]
1,O=S(=O)(CCCCl)N1CCC2(CC1)OOC1(CCCC1)OO2,100

# Tested on: Plasmodium berghei
# Experiment: Antiplasmodial activity against Plasmodium berghei ANKA infected in Swiss albino mouse assessed as increase in parasite clearance rate at 60 mg/kg/day,ip qd administrated for 5 subsequent days by Giemsa staining assay
# Type: functional, organism-based
# Conditions: not given
row,SMILES,Activity
1,O=S(=O)(CCCCl)N1CCC2(CC1)OOC1(CCCC1)OO2,Active

# Tested on: Plasmodium berghei
# Experiment: Antiplasmodial activity against Plasmodium berghei ANKA infected in Swiss albino mouse assessed as reduction of parasitaemia at 60 mg/kg/day,ip qd measured after 72 hrs post administration by Giemsa staining assay
# Type: functional, organism-based
# Conditions: not given
row,SMILES,Activity
1,CCS(=O)(=O)N1CCC2(CC1)OOC1(CCCCC1)OO2,Active
2,O=S(=O)(CCCCl)N1CCC2(CC1)OOC1(CCCC1)OO2,Active

# Tested on: Plasmodium berghei
# Experiment: Antiplasmodial activity against Plasmodium berghei ANKA infected in Swiss albino mouse assessed as partial cure by measuring parasitemia at 60 mg/kg/day,ip qd measured after 48 hrs post administration by Giemsa staining assay
# Type: functional, organism-based
# Conditions: not given
row,SMILES,Activity
1,CCS(=O)(=O)N1CCC2(CC1)OOC1(CCCCC1)OO2,inactive
2,CCCS(=O)(=O)N1CCC2(CC1)OOC1(CCCCCC1)OO2,inactive
3,O=S(=O)(CCCCl)N1CCC2(CC1)OOC1(CCCC1)OO2,Active
4,CCCS(=O)(=O)N1CCC2(CC1)OOC1(CCCCC1)OO2,inactive
5,CCCC1(C)OOC2(CCN(S(=O)(=O)CCC)CC2)OO1,inactive
6,CS(=O)(=O)N1CCC2(CC1)OOC1(CCCCCC1)OO2,inactive
7,O=S(=O)(c1ccc(Br)cc1F)N1CCC2(CC1)OOC1(CCCCCC1)OO2,inactive
